In patent US6696492B1, “Use of L carnitine and its alkanoyl dervatives for the preparation of a medicament useful for the treatment of patients suffering from diabetic and/or dysmetabolic nephropathy” (Sigma-Tau Industrie Farmaceutiche Riunite S.p.A., priority 1999, dated 2004):

Tests used:
[1] = Clinical physiology study: forearm blood flow by plethysmography, intravenous infusion of PLC; format: in vivo, human; conditions: 6 healthy volunteers, after 60-minute intravenous infusion at 12 micrograms per minute
Experimental: A clinical physiology study was conducted in human subjects for the purpose of establishing whether PLC was also capable of exerting a vasodilating action at the microcirculatory level. […] This study was conducted in 6 healthy volunteers, whose overall blood flow was measured by plethysmography in the forearm, both in basal conditions and after 60-minute intravenous infusion of PLC at the dose of 12 micrograms per minute. The choice of dose to be administered was based on kinetics calculations, in order to try and achieve a steady state plasma concentration of PLC similar to the one obtained with chronic oral administration of 2 grams of PLC.

[2] = Clinical study: forearm blood flow by plethysmography, local intra-arterial PLC, then nitro-L-arginine; format: in vivo, human; conditions: 8 healthy volunteers, local intra-arterial administration
[3] = Clinical pilot study, type 2 diabetes mellitus and diabetic nephropathy in the microalbuminuria stage; format: in vivo, human; conditions: after 6 months' treatment, 1.5 grams/day oral; before treatment 37.8±4.6; p<0.01; 8 patients
Experimental: (§1) Lastly, a clinical pilot study has been conducted in a small patient sample, consisting of 8 patients suffering from type 2 diabetes mellitus and diabetic nephropathy in the microalbuminuria stage without evidence of frank renal insufficiency and 10 patients suffering from type 2 diabetes mellitus and renal insufficiency (serum creatinine>2 mg/dl and creatinine clearance <40 ml/min).
(§2) Both patient groups were treated with 1.5 grams/day of PLC administered in three distinct doses of 500 mg at three different times of day (1 tablet after breakfast, lunch and dinner) for a total period of 6 months.

[4] = Clinical pilot study, type 2 diabetes mellitus and renal insufficiency; format: in vivo, human; conditions: after 6 months' treatment, 1.5 grams/day oral
Experimental: as §1, §2

[5] = Tolerability in patients with diabetes mellitus and peripheral arteriopathy; format: in vivo, human; conditions: 6 months' treatment
[6] = organ ischaemia and reperfusion; cited from earlier work
[7] = cited from earlier work
[8] = renally insufficient children; cited from earlier work

## CCC(=O)O[C@H](CC(=O)[O-])C[N+](C)(C)C [PLC, propionyl L-carnitine]
[1]
  increase in blood flow as compared to resting basal flow: approximately 25%
[2]
  vasodilatory action: confirmed the vasodilatory action
[3]
  urinary microalbumin excretion rate: 21.3±5.1 mg/g creatinine
[4]; before treatment 6.2±2.3, p<0.01, 10 patients
  24-h proteinuria: 3.1±1.2 g/24 h
[4]; before treatment 34.6±4.6, spread ±7.3
  creatinine clearance: 42.7 mL/min
[4]; before treatment 169±15
  LDL: 158 ± 10 mg/dL
[4]; before treatment 217±75 mg/dl
  triglycerides: 192±62 m/dl
[5]
  side effects in man: no severe unwanted effects
[6]
  damage induced by the ischaemia: capable of reducing the damage induced by the ischaemia
[7]; streptozocin-diabetic rats (Hotta et al. 1996)
  functional capability and perfusion of the peripheral nerves: capable of improving
[7]; streptozocin-diabetic rats
  plasma lipid levels (total cholesterol, triglycerides, LDL): reduced

## C[N+](C)(C)C[C@H](O)CC(=O)[O-] [L-carnitine]
[8]
  serum triglyceride levels: reduces the serum triglyceride levels
